“Also recorded” adds a separate entry of the source.
Assays:
[1] = tested on: isolated thoracic aorta of WKY rats; experiment: Vessel function on isolated rings of the thoracic aorta: endothelium-dependent relaxation by acetylcholine after KCl precontraction; assay type: in vivo, rat; settings: KCl-precontracted aorta rings, 30-month-old rats
Experimental: The interim analysis was carried out after 80% of the placebo-treated animals had died; this was the case after 30 months. 10 animals of each group were selected at random and anesthetized (hexobarbital, 80 mg·kg^−1, i.p.). Blood samples were then taken, and the thoracic aortae and the hearts were prepared and biochemically and/or functionally examined (Linz et al., 1997). The aorta was introduced into Tyrode's solution and freed from the surrounding fatty tissue. Segments of 2 mm were then sliced into rings, and these rings were introduced in a temperature-controlled (37° C.) organ bath (10 ml) with Tyrode's solution (composition in mol/l: NaCl 136.9; NaHCO3 11.9; KCl 2.7; CaCl2 0.5; MgCl2 2.0; NaHPO4 0.4; glucose 5.5; pH=7.4), and 95% O2/5% CO2 was bubbled through the solution. Each ring was mounted vertically between two fine steel clamps. The upper clamp was connected to a force sensor. The force signal was recorded using a computer-assisted biosignal analyzer. The aorta rings were suspended using a passive tension of 4.9 mN. After an adaptation period of one hour, the rings were contracted using potassium chloride (20 mmol/l). After a plateau had been reached, increasing concentrations of acetylcholine of 10^−8, 10^−7, 10^−6 and 10^−5 mol/l were added to the bath, triggering an endothelium dependent relaxation.

[2] = tested on: isolated heart of WKY rats; experiment: Function and metabolism of the isolated heart (Langendorff) after 30 months of treatment; assay type: in vivo, rat; settings: n = 10 per group
Experimental: (§1) The interim analysis was carried out after 80% of the placebo-treated animals had died; this was the case after 30 months. 10 animals of each group were selected at random and anesthetized (hexobarbital, 80 mg·kg^−1, i.p.). Blood samples were then taken, and the thoracic aortae and the hearts were prepared and biochemically and/or functionally examined (Linz et al., 1997). In accordance with the method described by Langendorff, the hearts were perfused with an oxygen-saturated (95% O2, […]), non-circulating Krebs-Henseleit solution of the following composition (mmol/l): NaCl, 118; KCl, 4.7; CaCl2, 2.5; MgSO4, 1.6; NaHCO3, 24.9; KH2PO4, 1.2; glucose, 5.5; Na-pyruvate, 2.0, using a perfusion pressure of 60 mm Hg. The pressure in the left ventricle and the pulse frequency of the heart were measured using a balloon catheter. The coronary blood flow was determined using an electromagnetic flow gage. After a washing phase of 5 minutes, 1 ml of the coronary effluent was taken off for measuring the lactate concentrations and the lactate dehydrogenase and creatine kinase activities. The weights of the entire heart and the weights of the left and the right ventricle were then determined. The left ventricle was fixed in 10% strength neutral buffered formalin solution and embedded in paraffin for light-microscopic examination.

[3] = tested on: WKY rats; experiment: Interim analysis after 30 months: organ weights (heart, ventricles, kidneys, spleen); assay type: in vivo, rat
Experimental: as §1

[4] = tested on: WKY rats; experiment: Histomorphological examination of organs (heart, kidneys, skeletal muscles, eyes, liver); assay type: in vivo, rat; settings: for age-related histomorphological organ changes (connective tissue in heart muscle, muscular dystrophy, tubulointerstitial kidney damage, retina atrophy): life-long treatment, WKY rats
From the text: The effect of a life-long treatment of young normotensive Wistar-Kyoto rats (WKY rats) with the sodium-hydrogen exchanger (“NHE”) inhibitor cariporide was investigated. In addition to the primary end point, the lifespan, surrogate parameters were studied and measured, for example the hypertrophy of the left ventricle of the heart, heart function, metabolism and endothelial function. In addition, organs, such as heart, kidneys, skeletal muscles and eyes, were examined histomorphologically. In accordance with the method described by Langendorff, the hearts were perfused with an oxygen-saturated (95% O2, […]), non-circulating Krebs-Henseleit solution of the following composition (mmol/l): NaCl, 118; KCl, 4.7; CaCl2, 2.5; MgSO4, 1.6; NaHCO3, 24.9; KH2PO4, 1.2; glucose, 5.5; Na-pyruvate, 2.0, using a perfusion pressure of 60 mm Hg. The pressure in the left ventricle and the pulse frequency of the heart were measured using a balloon catheter. The coronary blood flow was determined using an electromagnetic flow gage. After a washing phase of 5 minutes, 1 ml of the coronary effluent was taken off for measuring the lactate concentrations and the lactate dehydrogenase and creatine kinase activities. The weights of the entire heart and the weights of the left and the right ventricle were then determined. The left ventricle was fixed in 10% strength neutral buffered formalin solution and embedded in paraffin for light-microscopic examination.

[5] = tested on: normotensive Wistar-Kyoto rats (WKY rats); experiment: Life-long treatment of normotensive WKY rats with cariporide via the feed: lifespan, cumulative survival rate, onset of age-related cancer; assay type: in vivo, rat
From the text: The effect of a life-long treatment of young normotensive Wistar-Kyoto rats (WKY rats) with the sodium-hydrogen exchanger (“NHE”) inhibitor cariporide was investigated. In addition to the primary end point, the lifespan, surrogate parameters were studied and measured, for example the hypertrophy of the left ventricle of the heart, heart function, metabolism and endothelial function. In addition, organs, such as heart, kidneys, skeletal muscles and eyes, were examined histomorphologically.
Ninety one-month-old WKY rats were randomized into two groups of placebo-treated (n=45) and cariporide-treated (n=45) rats. Cariporide was administered via the feed (active compound content 0.3%).
Male WKY rats were purchased from Møllegrad Denmark. The animals (3 per cage) were kept under standardized conditions with respect to temperature, atmospheric humidity and light. The rats had free access to a standard diet (Altromin® maintenance diet 1320, sodium content 0.2%) and received drinking water ad libitum. All experiments were carried out in accordance with the German Law on the Protection of Animals.
Ninety one-month-old animals were randomized into two groups of in each case 45 animals. After randomization, placebo and cariporide were administered to the rats via the drinking water and the feed, respectively, a proportion of 0.3% of the feed ensuring complete blockage of the NHE for 24 hours.
At intervals of 3 months, the body weight was determined and the blood pressure was measured using the tail plethysmography method. Events of death were registered after they had occurred.
All data are stated as mean±standard deviations. The survival data were analyzed in accordance with Kaplan-Meier, followed by a Mantel-Cox log-rank test. Furthermore, variance analysis (ANOVA) followed by a Student-Newman-Keuls test were employed. Null hypotheses were rejected at p<0.05.

[6] = tested on: hypertensive rats; settings: hypertensive rats only; Circulation 1997; 96: 3164-3172; cited from earlier work

CC(C)c1ccc(C(=O)N=C(N)N)cc1S(C)(=O)=O.CS(=O)(=O)O [Cariporide, cariporide]
Vessel function on the aorta (relaxation in %) ([1]; ACh 10^−5 mol/l): 95 ± 10% | Vessel function on the aorta (relaxation in %) ([1]; ACh 10^−6 mol/l): 85 ± 8 % | Vessel function on the aorta (relaxation in %) ([1]; ACh 10^−7 mol/l): 50 ± 6 % | Vessel function on the aorta (relaxation in %) ([1]; ACh 10^−8 mol/l): 5 ± 2% | CF (coronary flow) [2]: 34.6 ± 0.7 mL/min/g | CK (creatine kinase in the coronary effluent) [2]: 0.20 ± 0.02 mU/min/g heart wwt | HR [2]: 182 ± 7 beats/min | LDH (lactate dehydrogenase in the coronary effluent) [2]: 0.42 ± 0.02 mU/min/g heart wwt | LVP (pressure in the left ventricle) [2]: 111.5 ± 3.9 mm Hg | Lactate in the coronary effluent [2]: 2.5 ± 0.13 μmol/min/g heart wwt | dP/dtmax (constriction rate of the left ventricle) [2]: 4432 ± 121 mm Hg/s | Heart weight, Heart (total) ([3]; n = 10/group): 235 ± 10 mg/100 g of body weight | Heart weight, Left ventricle ([3]; n = 10/group): 193 ± 8 mg/100 g of body weight | Heart weight, Right ventricle ([3]; n = 10/group): 36 ± 2 mg/100 g of body weight | age-related hypertrophy of the heart ([3]; versus placebo-treated animals): prevented | histomorphology of the livers ([4]; compared with control animals): unchanged | age-related histomorphological organ changes (connective tissue in heart muscle, muscular dystrophy, tubulointerstitial kidney damage, retina atrophy) [4]: drastically reduced | age-related histomorphological organ changes (connective tissue in heart muscle, muscular dystrophy, tubulointerstitial kidney damage, retina atrophy) ([4]; listed as cariporide): reduced drastically or prevented completely | Survival rate in percent ([5]; 19 months): 100% | Survival rate in percent ([5]; 20 months): 100% | Survival rate in percent ([5]; 21 months): 100% | Survival rate in percent ([5]; 22 months): 100% | Survival rate in percent ([5]; 23 months): 97% | Survival rate in percent ([5]; 24 months): 97% | Survival rate in percent ([5]; 25 months): 97% | Survival rate in percent ([5]; 26 months): 97% | Survival rate in percent ([5]; 27 months): 97% | Survival rate in percent ([5]; 28 months): 97% | Survival rate in percent ([5]; 29 months): 92% | Survival rate in percent ([5]; 30 months): 89% | Survival rate in percent ([5]; 31 months): 80% | Survival rate in percent ([5]; 32 months): 75% | Survival rate in percent ([5]; 33 months): 67% | Survival rate in percent ([5]; 34 months): 59% | Survival rate in percent ([5]; 35 months): 49% | Survival rate in percent ([5]; 36 months): 38% | Survival rate in percent ([5]; 37 months): 28% | Survival rate in percent ([5]; 38 months): 17% | Survival rate in percent ([5]; 39 months): 10% | maximum lifespan ([5]; life-long treatment, 0.3% in feed, WKY rats, placebo 30 months): 39 months | onset of age-related cancer ([5]; life-long treatment, WKY rats, listed as cariporide): delayed onset; also recorded: delayed significantly | life extension ([5]; maximum lifespan versus placebo): 30%

CCOC(=O)[C@H](CCc1ccccc1)N[C@@H](C)C(=O)N1[C@H](C(=O)O)C[C@@H]2CCC[C@@H]21 [ramipril]
effect on lifespan [6]: life-prolonging effect
